Laboratory results taken from patent US20050245399A1, “Pyrazole derivatives as herbicidal compositions containing them” (ISHIHARA SANGYO KAISHA, LTD., priority 2004, published 2005).

Experiments:
Assay type in all cases: in vivo
[1] = system: barnyardgrass (Echinochloa crus-galli L.): ECHCG; test: Test Example 1 pre-emergence herbicidal activity, ECHCG; settings: Rate 63 g a.i./ha, visually observed 20th to 23rd day after application
Summary of the method: (§1)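 Pre-emergence soil spray: wettable powder or emulsifiable concentrate diluted in water (500 L/ha) applied one day after sowing in upland field soil. Visual growth-control rating (%) on days 20–23, 0 = untreated control, 100 = complete kill.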

[2] = system: crabgrass (Digitaria sanguinalis L.): DIGSA; test: Test Example 1 pre-emergence herbicidal activity, DIGSA; settings: Rate 63 g a.i./ha, visually observed 20th to 23rd day after application
Summary of the method: as §1

[3] = system: green foxtail (Setaria viridis L.): SETVI; test: Test Example 1 pre-emergence herbicidal activity, SETVI; settings: Rate 63 g a.i./ha, visually observed 20th to 23rd day after application
Summary of the method: as §1

[4] = system: redroot pigweed (Amaranthus retroflexus L.): AMARE; test: Test Example 1 pre-emergence herbicidal activity, AMARE; settings: Rate 63 g a.i./ha, visually observed 20th to 23rd day after application
Summary of the method: as §1

[5] = system: prickly sida (Sida spinosa L.): SEDSP; test: Test Example 1 pre-emergence herbicidal activity, SIDSP; settings: Rate 63 g a.i./ha, visually observed 20th to 23rd day after application
Summary of the method: as §1

[6] = system: velvetleaf (Abutilon theophrasti): ABUTH; test: Test Example 1 pre-emergence herbicidal activity, ABUTH; settings: Rate 63 g a.i./ha, visually observed 20th to 23rd day after application
Summary of the method: as §1

[7] = system: rice (Oryza sativa L.): ORYSA; test: Test Example 1 pre-emergence herbicidal activity, ORYSA; settings: Rate 63 g a.i./ha, visually observed 20th to 23rd day after application
Summary of the method: as §1

[8] = system: wheat (Triticum aestivum L.): TRZAX; test: Test Example 1 pre-emergence herbicidal activity, TRZAX; settings: Rate 63 g a.i./ha, visually observed 20th to 23rd day after application
Summary of the method: as §1

[9] = system: corn (Zea mays L.): ZEAMX; test: Test Example 1 pre-emergence herbicidal activity, ZEAMX; settings: Rate 63 g a.i./ha, visually observed 20th to 23rd day after application
Summary of the method: as §1

[10] = system: soybean (Glycine max Merr.): GLXMA; test: Test Example 1 pre-emergence herbicidal activity, GLXMA; settings: Rate 63 g a.i./ha, visually observed 20th to 23rd day after application
Summary of the method: as §1

[11] = system: barnyardgrass (Echinochloa crus-galli L.), ECHCG; test: Test Example 2 post-emergence (foliage treatment) herbicidal activity, ECHCG
Summary of the method: (§2)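 Visual growth-control score (0 = untreated, 100 = complete kill) taken 20th-23rd day after a foliar spray. Seedlings were grown in upland field soil and treated at leaf stage: barnyardgrass 1.1-2.1, crabgrass 1.0-2.0, redroot pigweed 0.1-1.5, rice 1.0-2. Spray volume was 500 L/ha water with 0.1% (v/v) agricultural spreader.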

[12] = system: crabgrass (Digitaria sanguinalis L.), DIGSA; test: Test Example 2 post-emergence (foliage treatment) herbicidal activity, DIGSA
Summary of the method: as §2

[13] = system: green foxtail (Setaria viridis L.), SETVI; test: Test Example 2 post-emergence (foliage treatment) herbicidal activity, SETVI
Summary of the method: (§3)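 Each species was evaluated for growth suppression by eye, 0% matching untreated and 100% meaning death, some 20 to 23 days after a single post-emergence foliar treatment applied in 500 L/ha of water carrying 0.1% (v/v) agricultural spreader.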

[14] = system: redroot pigweed (Amaranthus retroflexus L.), AMARE; test: Test Example 2 post-emergence (foliage treatment) herbicidal activity, AMARE
Summary of the method: as §2

[15] = system: prickly sida (Sida spinosa L.), SIDSP; test: Test Example 2 post-emergence (foliage treatment) herbicidal activity, SIDSP
Summary of the method: as §3

[16] = system: velvetleaf (Abutilon theophrasti), ABUTH; test: Test Example 2 post-emergence (foliage treatment) herbicidal activity, ABUTH
Summary of the method: as §3

[17] = system: rice (Oryza sativa L.), ORYSA; test: Test Example 2 post-emergence (foliage treatment) herbicidal activity, ORYSA
Summary of the method: as §2

[18] = system: wheat (Triticum aestivum L.), TRZAX; test: Test Example 2 post-emergence (foliage treatment) herbicidal activity, TRZAX
Summary of the method: as §3

[19] = system: corn (Zea mays L.), ZEAMX; test: Test Example 2 post-emergence (foliage treatment) herbicidal activity, ZEAMX
Summary of the method: as §3

[20] = system: soybean (Glycine max Merr.), GLXMA; test: Test Example 2 post-emergence (foliage treatment) herbicidal activity, GLXMA
Summary of the method: as §3

[21] = system: barnyardgrass (Echinochiloa oryzicola: ECHOR); test: Test Example 3 water application herbicidal activity (paddy), ECHOR; settings: 63 g a.i./ha, water application under submerged condition at 0.5 leaf stage, visually observed 14th day after application; 0 = untreated control, 100 = complete kill
Summary of the method: (§4)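 Compound, as diluted wettable powder or emulsifiable concentrate, was pipetted into flood water at a set active-ingredient dose. Weeds were treated at 0.5-leaf stage after sowing or tuber planting; 2-leaf rice 4 days post-transplant. Control scored visually, 0 untreated to 100 complete kill, weeds day 14, rice day 21.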

[22] = system: japanese bulrush (Scirpus juncoides: SCPJO); test: Test Example 3 water application herbicidal activity (paddy), SCPJO; settings: 63 g a.i./ha, water application under submerged condition at 0.5 leaf stage, visually observed 14th day after application; 0 = untreated control, 100 = complete kill
Summary of the method: as §4

[23] = system: japanese ribbon wapato (Sagittaria pygmaea: SA GPY); test: Test Example 3 water application herbicidal activity (paddy), SAGPY; settings: 63 g a.i./ha, water application under submerged condition, tubers planted, visually observed 14th day after application; 0 = untreated control, 100 = complete kill
Summary of the method: as §4

[24] = system: rice (Oryza sativa L.: ORYSA); test: Test Example 3 water application herbicidal activity (paddy), transplanted rice ORYSA; settings: 63 g a.i./ha, water application 4th day after transplantation of 2 leaf stage rice, visually observed 21st day after application; 0 = untreated control, 100 = complete kill
Summary of the method: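 Flooded paddy-soil pots in greenhouse; ECHOR and SCPJO sown, SAGPY tubers planted a day later, compound applied into 3–4 cm water at weeds' 0.5-leaf stage. Rice transplanted at 2-leaf stage, treated day 4 after transplanting. Visual growth control 0–100% at 14 days (weeds) and 21 days (rice) after application.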

SMILES	Pre-emergence Herbicidal Activity ECHCG (growth controlling degree) [1] [%]	Pre-emergence Herbicidal Activity DIGSP (growth controlling degree) [2] [%]	Pre-emergence Herbicidal Activity SETVI (growth controlling degree) [3] [%]	Pre-emergence Herbicidal Activity AMARE (growth controlling degree) [4] [%]	Pre-emergence Herbicidal Activity SIDSP (growth controlling degree) [5] [%]	Pre-emergence Herbicidal Activity ABUTH (growth controlling degree) [6] [%]	Pre-emergence Herbicidal Activity ORYSA (growth controlling degree) [7] [%]	Pre-emergence Herbicidal Activity TRZAX (growth controlling degree) [8] [%]	Pre-emergence Herbicidal Activity ZEAMX (growth controlling degree) [9] [%]	Pre-emergence Herbicidal Activity GLXMA (growth controlling degree) [10] [%]	growth controlling degrees (%) ECHOR [21] [%]	growth controlling degrees (%) SCPJO [22] [%]	growth controlling degrees (%) SAGPY [23] [%]	growth controlling degrees (%) ORYSA [24] [%]	further results
Cn1nc(-c2c(F)cc(Cl)c(OC(F)F)c2NCc2ccccc2)c(Cl)c1OC(F)F [Compound 1-88]	50	98	70	100	80	70	10	0	0	40	100	80	60	20	growth controlling degree, ECHCO ([11]; 63 g a.i./ha): 100%; growth controlling degree, DIGSP ([12]; 63 g a.i./ha): 98%; growth controlling degree, SETVI ([13]; 63 g a.i./ha): 100%; growth controlling degree, AMARE ([14]; 63 g a.i./ha): 100%; growth controlling degree, SIDSP ([15]; 63 g a.i./ha): 100%; growth controlling degree, ABUTH ([16]; 63 g a.i./ha): 100%; growth controlling degree, ORYSA ([17]; 63 g a.i./ha): 30%; growth controlling degree, TRZAX ([18]; 63 g a.i./ha): 30%; growth controlling degree, ZEAMX ([19]; 63 g a.i./ha): 60%; growth controlling degree, GLXMA ([20]; 63 g a.i./ha): 60%
COc1c(Cl)cc(F)c(-c2nn(C)c(OC(F)F)c2Cl)c1N [Compound 1-90, 3-chloro-6-[4-chloro-5-(difluoromethoxy)-1-methyl-1H-pyrazol-3-yl]-5-fluoro-2-methoxybenzenamine]	98	100	100	100	98	100	60	50	30	40	100	98	98	50	growth controlling degree, ECHCO ([11]; 31 g a.i./ha): 100%; growth controlling degree, DIGSP ([12]; 31 g a.i./ha): 100%; growth controlling degree, SETVI ([13]; 31 g a.i./ha): 100%; growth controlling degree, AMARE ([14]; 31 g a.i./ha): 100%; growth controlling degree, SIDSP ([15]; 31 g a.i./ha): 100%; growth controlling degree, ABUTH ([16]; 31 g a.i./ha): 100%; growth controlling degree, ORYSA ([17]; 31 g a.i./ha): 98%; growth controlling degree, TRZAX ([18]; 31 g a.i./ha): 95%; growth controlling degree, ZEAMX ([19]; 31 g a.i./ha): 98%; growth controlling degree, GLXMA ([20]; 31 g a.i./ha): 98%
